Experimental data from patent US20250215039A1, “NUCLEOSIDES FOR TREATING CANCER” (PRIMEFOUR THERAPEUTICS, INC., priority 2022, published 2025).
Like-named read-outs stand apart in the source and are kept apart here.

How the values were obtained:
[1] = system: cancer cell lines; experiment: Cancer cell proliferation activity (CellTiterGlo, 72 h); type: cell-based; settings: 72 h, 72 h, read-out: IC50
How it was run: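 Cells seeded overnight at 37 °C, then dosed with compound at 0.1% final DMSO and incubated 72 h at 37 °C (5% or 10% CO2 by medium).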

[2] = target: human cytidine deaminase (CDA) (Homo sapiens, UniProt P32320); experiment: Metabolism by human cytidine deaminase (CDA), substrate absorbance at 290 nm
human cytidine deaminase (CDA), sequence (P32320 whole entry): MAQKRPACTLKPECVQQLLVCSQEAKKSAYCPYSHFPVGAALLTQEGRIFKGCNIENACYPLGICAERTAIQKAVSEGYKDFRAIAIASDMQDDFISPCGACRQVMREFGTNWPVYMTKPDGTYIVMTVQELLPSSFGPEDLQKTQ

IC50 ([1]; 5637 cell line (bladder)): > 50 µM | IC50 ([1]; CLS439 cell line (bladder)): > 50 µM | IC50 ([1]; HS729 cell line (muscle)): > 50 µM | IC50 ([1]; JAR cell line (placenta)): > 50 µM | IC50 ([1]; U20S cell line, bone): > 50 µM | IC50 ([1]; Homo sapiens, 22Rv1, 72 h, 22RV1 cell line (prostate)): > 50 µM | IC50 ([1]; Homo sapiens, 786-0, 72 h, 786O cell line (kidney)): > 50 µM | IC50 ([1]; Homo sapiens, A204, 72 h, A204 cell line (muscle)): 7.27 µM | IC50 ([1]; Homo sapiens, A549, 72 h, A549 cell line, lung): > 50 µM | IC50 ([1]; Homo sapiens, A673, 72 h, A673 cell line (bone)): > 50 µM | IC50 ([1]; Homo sapiens, A2780, 72 h, A2780 cell line (ovary)): > 50 µM | IC50 ([1]; Homo sapiens, A-375, 72 h, A375 cell line (skin)): > 50 µM | IC50 ([1]; Homo sapiens, A-431, 72 h, A431 cell line (skin)): > 50 µM | IC50 ([1]; Homo sapiens, ACHN, ACHN cell line (kidney)): > 50 µM | IC50 ([1]; Homo sapiens, ASPC1, 72 h, ASPC1 cell line (pancreas)): > 50 µM | IC50 ([1]; Homo sapiens, BT-20, 72 h, BT20 cell line (breast)): > 50 µM | IC50 ([1]; Homo sapiens, BXPC-3, 72 h, BXPC3 cell line (pancreas)): > 50 µM | IC50 ([1]; Homo sapiens, C-33-A, C33A cell line, endometrial): > 50 µM | IC50 ([1]; Homo sapiens, CAKI-1, 72 h, CAKI1 cell line (kidney)): > 50 µM | IC50 ([1]; Homo sapiens, COLO 205, 72 h, COLO205 cell line (colon)): > 50 µM | IC50 ([1]; Homo sapiens, COLO-678, 72 h, COLO678 cell line (colon)): > 50 µM | IC50 ([1]; Homo sapiens, Ca-Ski, CASKI cell line, endometrial): > 50 µM | IC50 ([1]; Homo sapiens, Caco-2, 72 h, CACO2 cell line (colon)): > 50 µM | IC50 ([1]; Homo sapiens, Calu-6, 72 h, CALU6 cell line (lung)): > 50 µM | IC50 ([1]; Homo sapiens, DLD-1, 72 h, DLD1 cell line (colon)): > 50 µM | IC50 ([1]; Homo sapiens, DU-145, 72 h, DU145 cell line (prostate)): > 50 µM | IC50 ([1]; Homo sapiens, EFO-21, 72 h, EFO21 cell line (ovary)): > 50 µM | IC50 ([1]; Homo sapiens, EJ-28, 72 h, EJ28 cell line (bladder)): > 50 µM | IC50 ([1]; Homo sapiens, Granta-519, 72 h, GRANTA-519 cell line (hematological)): 0.46 µM | IC50 ([1]; Homo sapiens, HCT-15, 72 h, HCT15 cell line (colon)): > 50 µM | IC50 ([1]; Homo sapiens, HCT-116, 72 h, HCT116 cell line (colon)): > 50 µM | IC50 ([1]; Homo sapiens, HEK293, 72 h, HEK293 cell line (kidney)): > 50 µM | IC50 ([1]; Homo sapiens, HL-60, 72 h, HL-60 cell line (hematological)): > 50 µM | IC50 ([1]; Homo sapiens, HT-29, 72 h, HT29 cell line (colon)): > 50 µM | IC50 ([1]; Homo sapiens, HT-1080, 72 h, HT1080 cell line (connective tissue)): > 50 µM | IC50 ([1]; Homo sapiens, HeLa, HELA cell line, endometrial): > 50 µM | IC50 ([1]; Homo sapiens, HepG2, 72 h, HEPG2 cell line (liver)): > 50 µM | IC50 ([1]; Homo sapiens, Hs-578T, HS578T cell line, breast): > 50 µM | IC50 ([1]; Homo sapiens, IGROV-1, 72 h, IGROV1 cell line (ovary)): > 50 µM | IC50 ([1]; Homo sapiens, IMR-90, 72 h, IMR90 cell line, lung): > 50 µM | IC50 ([1]; Homo sapiens, J82, 72 h, J82 cell line (bladder)): > 50 µM | IC50 ([1]; Homo sapiens, JEG-3, 72 h, JEG3 cell line (placenta)): > 50 µM | IC50 ([1]; Homo sapiens, JIMT-1, 72 h, JIMT1 cell line (breast)): > 50 µM | IC50 ([1]; Homo sapiens, K562, 72 h, K-562 cell line (hematological)): > 50 µM | IC50 ([1]; Homo sapiens, Kasumi 1, 72 h, KASUMI-1 cell line (hematological)): > 50 µM | IC50 ([1]; Homo sapiens, L-363, 72 h, L-363 cell line (hematological)): > 50 µM | IC50 ([1]; Homo sapiens, LoVo, LOVO cell line (colon)): > 50 µM | IC50 ([1]; Homo sapiens, MCF7, 72 h, MCF7 cell line (breast)): > 50 µM | IC50 ([1]; Homo sapiens, MDA-MB-231, 72 h, MDAMB231 cell line (breast)): > 50 µM | IC50 ([1]; Homo sapiens, MDA-MB-435, 72 h, MDAMB435 cell line (skin)): > 50 µM | IC50 ([1]; Homo sapiens, MDA-MB-436, 72 h, MDAMB436 cell line (breast)): > 50 µM | IC50 ([1]; Homo sapiens, MDA-MB-468, 72 h, MDAMB468 cell line (breast)): > 50 µM | IC50 ([1]; Homo sapiens, MG-63, 72 h, MG63 cell line (bone)): > 50 µM | IC50 ([1]; Homo sapiens, MHH-ES-1, 72 h, MHHES1 cell line (bone)): > 50 µM | IC50 ([1]; Homo sapiens, MIA PaCa-2, 72 h, MIAPACA2 cell line (pancreas)): > 50 µM | IC50 ([1]; Homo sapiens, MINO, MINO cell line (hematological)): 0.68 µM | IC50 ([1]; Homo sapiens, MV4-11, 72 h, MV4-11 cell line (hematological)): > 50 µM | IC50 ([1]; Homo sapiens, NCI-H23, 72 h, NCI-H23 cell line (lung)): > 50 µM | IC50 ([1]; Homo sapiens, NCI-H82, 72 h, NCIH82 cell line (lung)): > 50 µM | IC50 ([1]; Homo sapiens, NCI-H292, 72 h, NCIH292 cell line (lung)): > 50 µM | IC50 ([1]; Homo sapiens, NCI-H460, 72 h, NCIH460 cell line (lung)): > 50 µM | IC50 ([1]; Homo sapiens, OVCAR-3, 72 h, OVCAR3 cell line (ovary)): > 50 µM | IC50 ([1]; Homo sapiens, OVCAR-4, 72 h, OVCAR4 cell line (ovary)): > 50 µM | IC50 ([1]; Homo sapiens, PANC-1, 72 h, PANC1 cell line (pancreas)): > 50 µM | IC50 ([1]; Homo sapiens, PC-3, 72 h, PC3 cell line (prostate)): > 50 µM | IC50 ([1]; Homo sapiens, PLC-PRF-5, 72 h, PLCPRF5 cell line (liver)): > 50 µM | IC50 ([1]; Homo sapiens, Panc1005, 72 h, PANC1005 cell line (pancreas)): > 50 µM | IC50 ([1]; Homo sapiens, RD, RD cell line (muscle)): > 50 µM | IC50 ([1]; Homo sapiens, Ramos, RAMOS cell line (hematological)): 8.68 µM | IC50 ([1]; Homo sapiens, SAOS-2, 72 h, SAOS2 cell line (bone)): 2.05 µM | IC50 ([1]; Homo sapiens, SF-268, 72 h, SF268 cell line (brain)): > 50 µM | IC50 ([1]; Homo sapiens, SF-295, 72 h, SF295 cell line (brain)): > 50 µM | IC50 ([1]; Homo sapiens, SK-BR-3, 72 h, SKBR3 cell line (breast)): > 50 µM | IC50 ([1]; Homo sapiens, SK-HEP1, 72 h, SKHEP1 cell line (liver)): > 50 µM | IC50 ([1]; Homo sapiens, SK-LMS-1, 72 h, SKLMS1 cell line (uterus)): > 50 µM | IC50 ([1]; Homo sapiens, SK-MEL-5, 72 h, SKMEL5 cell line, skin): > 50 µM | IC50 ([1]; Homo sapiens, SK-MEL-28, 72 h, SKMEL28 cell line (skin)): > 50 µM | IC50 ([1]; Homo sapiens, SK-N-AS, SKNAS cell line (brain)): > 50 µM | IC50 ([1]; Homo sapiens, SK-N-SH, SKNSH cell line (brain)): > 50 µM | IC50 ([1]; Homo sapiens, SK-OV-3, 72 h, SKOV3 cell line (ovary)): > 50 µM | IC50 ([1]; Homo sapiens, SNB-75, 72 h, SNB75 cell line (brain)): > 50 µM | IC50 ([1]; Homo sapiens, SU-DHL10, 72 h, SU-DHL-10 cell line (hematological)): 2.55 µM | IC50 ([1]; Homo sapiens, SU-DHL-6, 72 h, SU-DHL-6 cell line (hematological)): > 50 µM | IC50 ([1]; Homo sapiens, SW-620, 72 h, SW620 cell line (colon)): > 50 µM | IC50 ([1]; Homo sapiens, T-24, 72 h, T24 cell line (bladder)): > 50 µM | IC50 ([1]; Homo sapiens, TE-671, 72 h, TE671 cell line (muscle)): > 50 µM | IC50 ([1]; Homo sapiens, THP-1, 72 h, THP-1 cell line (hematological)): > 50 µM | IC50 ([1]; Homo sapiens, U-87 MG, U87MG cell line (brain)): > 50 µM | IC50 ([1]; Homo sapiens, UMUC3, 72 h, UMUC3 cell line (bladder)): > 50 µM | IC50 ([1]; Homo sapiens, UO-31, 72 h, UO31 cell line (kidney)): > 50 µM | IC50 ([1]; Homo sapiens, WSU-NHL, WSU-NHL cell line (hematological)): 2.32 µM | IC50 ([1]; MT-3, 72 h, MT3 cell line (breast)): > 50 µM | IC50 ([1]; NCI-H358M, NCIH358M cell line (lung)): > 50 µM | IC50 ([1]; PBMC, PBMC (hematological)): > 50 µM | IC50 ([1]; RD-ES, RDES cell line (bone)): > 50 µM | metabolism (deamination) by human CDA (line graph) ([2]; 12 nM CDA, 50 and 200 uM substrate, 37° C., pH 7.5, figure legends FIG. 4-9): not metabolized | substrate conversion by CDA (Inactive) ([2]; rate of substrate conversion at 200 μM, could not be fitted): Inactive
SMILES: N#C[C@]1(CO)O[C@@H](n2cc(F)c(N)nc2=O)C[C@@H]1O [Cpd. No. 6, (2R,3S,5R)-5-(4-amino-5-fluoro-2-oxopyrimidin-1(2H)-yl)-3-hydroxy-2-(hydroxymethyl)tetrahydrofuran-2-carbonitrile]
